What was measured:
[1] = tested on: P388 leukemia cells; assay: F-AraATP levels in P388 leukemia cells of treated mice (HPLC); assay type: in vivo; conditions: 80 mg/kg
Description: Relative to activity against leukemia and antiviral activity, the following summation was found: Levels of F-AraATP in acid-soluble extracts prepared from L1210 and P388 leukemia cells in mice treated with 2-F-AraA (80 mg/kg) were determined by HPLC. […] Inhibition of DNA synthesis by 2-F-AraA (80 mg/kg) in L1210 and P388 leukemia cells in vivo was pronounced for 7 hours after treatment. […] 2-F-AraA was effective against P388 leukemia; % increase in median life span of mice treated with 80 and 52 mg/kg (q3hrsx8; days 1,5,9 after implant of 10^6 cells) was 170% and 150%.

[2] = tested on: Herpes Simplex Virus Type 1; assay: In vitro antiviral activity, Virus Rating; assay type: cell-based

`Nc1nc(F)nc2c1ncn2[C@@H]1O[C@H](CO)[C@@H](O)[C@@H]1O` [2-F-AraA, 9-β-D-arabinofuranosyl-2-fluoroadenine] was tested, and the “level of F-AraATP in acid-soluble extracts (HPLC)” value ([1]; 1 to 6 hours after treatment) was 30-50 nmoles/gm cells, the “level of F-AraATP in acid-soluble extracts (HPLC)” value ([1]; 9 hours after treatment) was “none was detected” and the “activity against the virus” value [2] was “demonstrated activity”. For the same molecule, the “Virus Rating (VR)” value ([2]; average VR adjusted for number of Microtiter wells, VR≥1.0 definite activity) was 1.4.
